In US20260042753A1 (Merck Patent GmbH, priority 2019, published 2026):

Columns and labels:
c-Kit(V654A) = c-Kit(V654A) (Homo sapiens, UniProt P10721, V654A); test: c-Kit(V654A) assay; format: biochemical; settings: Table 1; 200 μM ATP
Method in brief: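 Radiometric filter-binding read-out: after 3% phosphoric acid stop, peptide-incorporated 33P on filtermat scintillation-counted. Enzyme: human c-Kit V654A, residues 544–end, N-terminal GST fusion.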

[1] = target: mutant cKIT (560-576 and V654A) in GIST430/654 cell line (Homo sapiens (Human), UniProt P10721, DEL560-576/V654A); test: Cellular testing of cKIT mutant inhibitors: phospho-Y307-cKIT Luminex assay in GIST430/654 cells; format: cell-based; settings: Table 1; cKIT autophosphorylation, compounds 45 min; read-out: GIST 430/654 IC50
Method in brief: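 Autophosphorylation of mutant cKIT at Y307 was quantified by a Luminex bead sandwich assay (total-cKIT capture, phosphospecific detection) after 45 min compound exposure in GIST430/654 cells, cultured in medium containing 100 nM imatinib. Signals were normalised to solvent (0.3% DMSO) controls and dose-response curves fitted for IC50.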

mutant cKIT (560-576 and V654A) in GIST430/654 cell line, sequence (P10721 other isoform, or with tags, fused parts or gaps V654A/del 1-25/del 560-576 limits assumed): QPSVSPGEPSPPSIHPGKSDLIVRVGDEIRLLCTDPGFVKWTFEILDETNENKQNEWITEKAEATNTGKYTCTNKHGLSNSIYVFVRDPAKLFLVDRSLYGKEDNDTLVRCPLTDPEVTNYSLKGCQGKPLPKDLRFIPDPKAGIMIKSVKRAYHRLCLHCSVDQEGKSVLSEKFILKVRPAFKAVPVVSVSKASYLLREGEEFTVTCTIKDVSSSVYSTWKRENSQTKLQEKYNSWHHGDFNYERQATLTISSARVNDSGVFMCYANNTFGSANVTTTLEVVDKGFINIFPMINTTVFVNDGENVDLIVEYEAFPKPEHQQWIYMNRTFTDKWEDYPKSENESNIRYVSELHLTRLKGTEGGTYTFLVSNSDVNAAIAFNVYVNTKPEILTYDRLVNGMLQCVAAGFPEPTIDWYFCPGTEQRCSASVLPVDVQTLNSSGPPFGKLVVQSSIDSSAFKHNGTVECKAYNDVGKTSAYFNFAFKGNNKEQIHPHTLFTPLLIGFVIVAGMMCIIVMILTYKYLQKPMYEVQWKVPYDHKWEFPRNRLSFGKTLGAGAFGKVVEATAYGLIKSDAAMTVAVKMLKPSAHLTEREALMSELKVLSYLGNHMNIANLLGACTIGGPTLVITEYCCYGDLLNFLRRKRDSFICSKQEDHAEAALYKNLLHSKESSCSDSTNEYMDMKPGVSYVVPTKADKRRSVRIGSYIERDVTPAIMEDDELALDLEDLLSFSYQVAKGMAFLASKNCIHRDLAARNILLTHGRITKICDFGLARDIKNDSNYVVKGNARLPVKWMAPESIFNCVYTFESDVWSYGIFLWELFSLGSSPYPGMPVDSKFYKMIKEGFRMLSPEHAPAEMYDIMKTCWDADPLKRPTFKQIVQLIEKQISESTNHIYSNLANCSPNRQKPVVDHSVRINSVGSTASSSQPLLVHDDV

SMILES | IC50 (c-Kit(V654A)) [nM] | IC50 [1] [nM]
COCCOc1cc2[nH]nc(-c3cc(-c4ccc(C(=O)N5CCC[C@@H]5CS(C)(=O)=O)cc4)no3)c2cc1F [A55, 5-fluoro-3-(3-{4-[(2R)-2-(methanesulfonylmethyl)pyrrolidine-1-carbonyl]phenyl}-1,2-oxazol-5-yl)-6-(2-methoxyethoxy)-1H-indazole] | 0.73 | 65
COCCOc1cc2[nH]nc(-c3cc(-c4ccc(C(=O)N5CCOCC56COC6)cc4)no3)c2cc1F [A155, 5-(4-{5-[5-fluoro-6-(2-methoxyethoxy)-1H-indazol-3-yl]-1,2-oxazol-3-yl}benzoyl)-2,8-dioxa-5-azaspiro[3.5]nonane] | 1.6 | 60
COCCOc1cc2[nH]nc(-c3cc(-c4ccc(C(=O)N5C[C@@H]6CS(=O)(=O)C[C@@H]6C5)cc4)no3)c2cc1F [A217, (cis)-5-(4-{5-[5-fluoro-6-(2-methoxyethoxy)-1H-indazol-3-yl]-1,2-oxazol-3-yl}benzoyl)-hexahydro-1H-2lambda6-thieno[3,4-c]pyrrole-2,2-dione] | 0.32 | 43
COCCOc1cc2[nH]nc(-c3cc(-c4ccc(C(=O)N5CC(N6CCS(=O)(=O)CC6)C5)cc4)no3)c2cc1F [A57, 4-[1-(4-{5-[5-fluoro-6-(2-methoxyethoxy)-1H-indazol-3-yl]-1,2-oxazol-3-yl}benzoyl)azetidin-3-yl]-1lambda6-thiomorpholine-1,1-dione] | 1.9 | 180
COCCOc1cc2[nH]nc(-c3cc(-c4ccc(C(=O)N5CCN(C(CO)CO)CC5)cc4)no3)c2cc1F [A228, 2-[4-(4-{5-[5-fluoro-6-(2-methoxyethoxy)-1H-indazol-3-yl]-1,2-oxazol-3-yl}benzoyl)piperazin-1-yl]propane-1,3-diol] | 570 | 470
COCCOc1cc2[nH]nc(-c3cc(-c4ccc(C(=O)N5CCN(C6CCOCC6)CC5)cc4)no3)c2cc1F [A188, 5-fluoro-6-(2-methoxyethoxy)-3-(3-{4-[4-(oxan-4-yl)piperazine-1-carbonyl]phenyl}-1,2-oxazol-5-yl)-1H-indazole] | 0.61 | 34
COCCOc1cc2[nH]nc(-c3cc(-c4ccc(C(=O)N5CCOC[C@@H]5COC)cc4)no3)c2cc1F [A110, 5-fluoro-6-(2-methoxyethoxy)-3-(3-{4-[(3S)-3-(methoxymethyl)morpholine-4-carbonyl]phenyl}-1,2-oxazol-5-yl)-1H-indazole] | 0.76 | 50
COCCOc1cc2[nH]nc(-c3cc(-c4ccc(C(=O)N5CCC[C@@H]5C(C)(C)O)nc4)no3)c2cc1F [A109, (5-{5-[5-fluoro-6-(2-methoxy-ethoxy)-1H-indazol-3-yl]-isoxazol-3-yl}-pyridin-2-yl)-[(R)-2-(1-hydroxy-1-methyl-ethyl)-pyrrolidin-1-yl]-methanone] | 9.1 | 430
COCCOc1cc2[nH]nc(-c3cc(-c4ccc(C)nc4)no3)c2cc1Cl [A13, 5-chloro-6-(2-methoxyethoxy)-3-[3-(6-methylpyridin-3-yl)-1,2-oxazol-5-yl]-1H-indazole] | 11 | 300
COCCOc1cc2[nH]nc(-c3cc(-c4ccc(C(=O)N(C)C)nc4)no3)c2cc1F [A99, 5-{5-[5-fluoro-6-(2-methoxy-ethoxy)-1H-indazol-3-yl]-isoxazol-3-yl}-pyridine-2-carboxylic acid dimethylamide] | 6.9 | 670
COCCOc1cc2[nH]nc(-c3cc(-c4ccc(C(=O)N5CCN(C)C[C@@H]5C)cc4)on3)c2cc1C#N [A11, 3-(5-{4-[(2S)-2,4-dimethylpiperazine-1-carbonyl]phenyl}-1,2-oxazol-3-yl)-6-(2-methoxyethoxy)-1H-indazole-5-carbonitrile] | 2.4 | 170
COCCOc1cc2[nH]nc(-c3cc(-c4ccc(C(=O)N5CCN(C6COC6)CC5C)cc4)no3)c2cc1F (stereo not shown) [A174, 5-fluoro-6-(2-methoxyethoxy)-3-(3-{4-[2-methyl-4-(oxetan-3-yl)piperazine-1-carbonyl]phenyl}-1,2-oxazol-5-yl)-1H-indazole] | 1.3 | 35
COCCOc1cc2[nH]nc(-c3cc(-c4ccc(C(=O)N(C)C)cc4)no3)c2cc1C#N [A6, 4-{5-[5-cyano-6-(2-methoxyethoxy)-1H-indazol-3-yl]-1,2-oxazol-3-yl}-N,N-dimethylbenzamide] | 4.1 | 150
COCCOc1cc2[nH]nc(-c3cc(-c4ccc(C(=O)N5C[C@H]6COCC[C@H]6C5)cc4)no3)c2cc1F (relative stereo) [A214, 3-(3-{4-[(cis)-octahydropyrano[3,4-c]pyrrole-2-carbonyl]phenyl}-1,2-oxazol-5-yl)-5-fluoro-6-(2-methoxyethoxy)-1H-indazole] | 0.44 | 37
COCCOc1cc2[nH]nc(-c3cc(-c4ccc(C(=O)N5CC(C)(N)C5)cc4)no3)c2cc1F [A56, 1-(4-{5-[5-fluoro-6-(2-methoxyethoxy)-1H-indazol-3-yl]-1,2-oxazol-3-yl}benzoyl)-3-methylazetidin-3-amine] | 1.6 | 170
COCCOc1cc2[nH]nc(-c3cc(-c4ccc(N5CCN(C)CC5)nc4)no3)c2cc1F [A39, 5-fluoro-6-(2-methoxyethoxy)-3-{3-[6-(4-methylpiperazin-1-yl)pyridin-3-yl]-1,2-oxazol-5-yl}-1H-indazole] | 1.7 | 150
COCCOc1cc2[nH]nc(-c3cc(-c4ccc(C(=O)N5CC(F)C5)cc4)no3)c2cc1F [A26, 5-fluoro-3-{3-[4-(3-fluoroazetidine-1-carbonyl)phenyl]-1,2-oxazol-5-yl}-6-(2-methoxyethoxy)-1H-indazole] | 2.1 | 45
COCCOc1cc2[nH]nc(-c3cc(-c4ccc(C(=O)N5CC[C@@H]5C(C)(C)O)cc4)on3)c2cc1F [A147, (4-{3-[5-fluoro-6-(2-methoxy-ethoxy)-1H-indazol-3-yl]-isoxazol-5-yl}-phenyl)-[(R)-2-(1-hydroxy-1-methyl-ethyl)-azetidin-1-yl]-methanone] | 2.2 | 67
COCCOc1cc2[nH]nc(-c3cc(-c4ccc(C(=O)N5CC[C@H]5CS(C)(=O)=O)cc4)no3)c2cc1F [A152, 5-fluoro-3-(3-{4-[(2S)-2-(methanesulfonylmethyl)azetidine-1-carbonyl]phenyl}-1,2-oxazol-5-yl)-6-(2-methoxyethoxy)-1H-indazole] | 0.88 | 64

Further molecules by falling IC50 (c-Kit(V654A)), results first:

IC50 (c-Kit(V654A)) [nM] | IC50 [1] [nM] | SMILES
5.3 | 130 | COCCOc1cc2[nH]nc(-c3cc(-c4ccc(NC(C)=O)cc4)no3)c2cc1Cl [A17, N-(4-{5-[5-chloro-6-(2-methoxyethoxy)-1H-indazol-3-yl]-1,2-oxazol-3-yl}phenyl)acetamide]
4.1 | 120 | COCCOc1cc2[nH]nc(-c3cc(-c4ccc(C(=O)N5CCN(C)C(=O)C5)cc4)no3)c2cc1F [A116, 4-(4-{5-[5-fluoro-6-(2-methoxyethoxy)-1H-indazol-3-yl]-1,2-oxazol-3-yl}benzoyl)-1-methylpiperazin-2-one]
3.1 | 120 | COCCOc1cc2[nH]nc(-c3cc(-c4ccc(-n5ccccc5=O)cc4)no3)c2cc1F [A41, 1-(4-{5-[5-Fluoro-6-(2-methoxy-ethoxy)-1H-indazol-3-yl]-isoxazol-3-yl}-phenyl)-1H-pyridin-2-one]
1.6 | 55 | COCCOc1cc2[nH]nc(-c3cc(-c4ccc(C(=O)N5CCN(C6COC6)C[C@H]5C)cc4)no3)c2cc1F [A190, 5-fluoro-6-(2-methoxyethoxy)-3-(3-{4-[(2R)-2-methyl-4-(oxetan-3-yl)piperazine-1-carbonyl]phenyl}-1,2-oxazol-5-yl)-1H-indazole]
0.94 | 160 | COCCOc1cc2[nH]nc(-c3cc(-c4ccc(C(=O)N5CC(N6CC(F)C6)C5)cc4)no3)c2cc1F [A101, 5-fluoro-3-[3-(4-{3-fluoro-[1,3′-biazetidine]-1′-carbonyl}phenyl)-1,2-oxazol-5-yl]-6-(2-methoxyethoxy)-1H-indazole]
0.91 | 37 | COCCOc1cc2[nH]nc(-c3cc(-c4ccc(C(=O)N5CC[C@H]5CO)cc4)no3)c2cc1F [A95, [(2S)-1-(4-{5-[5-fluoro-6-(2-methoxyethoxy)-1H-indazol-3-yl]-1,2-oxazol-3-yl}benzoyl)azetidin-2-yl]methanol]
0.76 | 160 | COCCOc1cc2[nH]nc(-c3cc(-c4ccc(C(=O)N5CC[S+]([O-])CC5)cc4)no3)c2cc1F [A78, 4-(4-{5-[5-fluoro-6-(2-methoxyethoxy)-1H-indazol-3-yl]-1,2-oxazol-3-yl}benzoyl)-1lambda4-thiomorpholin-1-one]
0.65 | 52 | COCCOc1cc2[nH]nc(-c3cc(-c4ccc(C(=O)N5CCOC[C@@H]5CO)cc4)no3)c2cc1Cl [A66, (4-{5-[5-chloro-6-(2-methoxy-ethoxy)-1H-indazol-3-yl]-isoxazol-3-yl}-phenyl)-((S)-3-hydroxymethyl-morpholin-4-yl)-methanone]
0.52 | 110 | CNCC1CCCN1C(=O)c1ccc(-c2cc(-c3n[nH]c4cc(OCCOC)c(F)cc34)on2)cc1 (stereo not shown) [A222, {[1-(4-{5-[5-fluoro-6-(2-methoxyethoxy)-1H-indazol-3-yl]-1,2-oxazol-3-yl}benzoyl)pyrrolidin-2-yl]methyl}(methyl)amine]
0.46 | 32 | COCCOc1cc2[nH]nc(-c3cc(-c4ccc(C(=O)N5CCC6(COC6)C5)cc4)no3)c2cc1F [A158, 5-fluoro-6-(2-methoxyethoxy)-3-[3-(4-{2-oxa-6-azaspiro[3.4]octane-6-carbonyl}phenyl)-1,2-oxazol-5-yl]-1H-indazole]
